Assay results reported in patent publication US20140219995A1, “INHIBITORS OF BACTERIAL TYPE III SECRETION SYSTEM” (priority 2011, published 2014).
Where two headings read alike, the source gives them in different places.

How the values were obtained:
[1] = tested on: T3SS-mediated secretion of ExoS′-βLA fusion protein, P. aeruginosa strain MDM973; assay: Effector-β-lactamase (ExoS′-βLA) secretion assay; type: cell-based, Pseudomonas aeruginosa; conditions: for IC50: Pseudomonas aeruginosa
Text: Effector-β-Lactamase (βLA) Secretion Assays.
P. aeruginosa. A gene encoding an ExoS'-β-lactamase (βLA) fusion protein (comprised of 234 codons of P. aeruginosa effector ExoS fused to the TEM-1 β-lactamase gene lacking secretion signal codons) was constructed by splicing by overlap extension PCR (SOE-PCR) (Choi and Schweizer, 2005, BMC Microbiol., 5:30) using primers 5-10 (Table 3, above), sequence confirmed, cloned into lacI^Q-containing GATEWAY® vector pUCP24GW (see Moir, et al., 2007, J Biomol. Screen., 12:855-64) behind the lac promoter, and introduced into P. aeruginosa by electroporation (see Choi, et al., 2006, J. Microbiol. Methods, 64:391-7). Secretion of fusion proteins was detected by measuring the hydrolysis of the chromogenic β-lactamase substrate nitrocefin in clear 96-well microplates in a modification of a previously described assay (Lee, et al., 2007, Infect. Immun., 75:1089-98). Cells of strain MDM973 (PAK/pUCP24GW-exoS:blaM) were sub-cultured in the morning from overnight growths in LBG into 0.1 ml of LBGIE with or without test compounds and grown for 150 min. Nitrocefin (100 μg/ml final) was added, and A490 measurements taken every minute for 15 min in a Victor^3V 1420 Multilabel HTS Counter (PerkinElmer). Slopes were calculated as a relative measure of the quantity of the effector-βLA fusion protein secreted and were absolutely dependent on induction with IPTG, EGTA, and the presence of a functional pscC gene in the P. aeruginosa cells. Typical signal:background ratios were 6-10.

[2] = tested on: T3SS-mediated cytotoxicity of translocated effector protein ExoU in CHO cells; assay: Inhibition of P. aeruginosa ExoU-dependent CHO cell killing (translocation, LDH release); type: cell-based; conditions: Pseudomonas aeruginosa
Text: Inhibition of P. aeruginosa ExoU-Dependent CHO Cell Killing.
Pseudolipasin, which acts by direct inhibition of the ExoU phospholipase, was used as control inhibitor (Lee, et al, 2007, Infect. Immun., 75:1089-98).

[3] = read-out: Avg. Translocation IC50

Row | SMILES | IC50 ([1]; read-out: Avg. Secretion IC50) [µM] | melting point [°C] | IC50 [2, 3] [µM] | also measured
1 | O=C(COc1ccc(Cl)cc1Cl)NCc1ccc2c(c1)OCO2 [MBX-1668] | > 100 | 117 |  | effect of structural alteration on T3SS-mediated secretion inhibition ([1]; vs. MBX-1641): significantly inferior performance
2 | C[C@@H](Oc1ccc(Cl)cc1Cl)C(=O)NCc1ccc2c(c1)OCO2 [MBX-1684] | 3.7 |  |  | 
3 | CC(C)(Oc1ccc(Cl)cc1Cl)C(=O)NCc1ccc2c(c1)OCO2 [MBX-1685] | > 100 | 92 |  | effect of structural alteration on T3SS-mediated secretion inhibition ([1]; vs. MBX-1641): significantly inferior performance
4 | COc1ccc(CNC(=O)C(C)Oc2ccc(Cl)cc2Cl)cc1 (stereo not drawn) [MBX-1940] |  | 76 | 12.5 | 
5 | COc1cccc(CNC(=O)C(C)Oc2ccc(Cl)cc2Cl)c1 (stereo not drawn) [MBX-1941] | 17.2 | 119 |  | 
6 | COc1ccc(CNC(=O)C(C)Oc2ccc(Cl)cc2Cl)cc1OC (stereo not drawn) [MBX-1942] |  | 127 | > 100 | 
7 | COc1cc(CNC(=O)C(C)Oc2ccc(Cl)cc2Cl)cc(OC)c1 (stereo not drawn) [MBX-1943] | 18.8 | 111 | 23.7 | 
8 | COc1cc(CNC(=O)C(C)Oc2ccc(Cl)cc2Cl)cc(OC)c1OC (stereo not drawn) [MBX-1944] | 55.5 | 119 | > 100 | 
9 | COc1ccc(OC)c(CNC(=O)C(C)Oc2ccc(Cl)cc2Cl)c1 (stereo not drawn) [MBX-1947] | 34.8 | 67 | > 100 | 
10 | COc1cccc(CNC(=O)C(C)Oc2ccc(Cl)cc2Cl)c1OC (stereo not drawn) [MBX-1948] | 10.1 | 130 | > 100 | 
11 | COc1ccc(CNC(=O)C(C)Oc2ccc(Cl)cc2Cl)c(OC)c1 (stereo not drawn) [MBX-1949] | 16.9 | 117 |  | 
12 | Cc1ccccc1CNC(=O)C(C)Oc1ccc(Cl)cc1Cl (stereo not drawn) [MBX-1951] |  | 128 | 66.7 | 
13 | CC(Oc1ccc(Cl)cc1Cl)C(=O)NCc1ccccc1Cl (stereo not drawn) [MBX-1956] |  | 113 | 52.3 | 
14 | CC(Oc1ccc(Cl)cc1Cl)C(=O)NCc1ccccc1N(C)C (stereo not drawn) [MBX-1959] | 18.6 | 85 | 60 | 
15 | CC(Oc1ccc(Cl)cc1Cl)C(=O)NCc1cccc(N(C)C)c1 (stereo not drawn) [MBX-1960] | 12.2 | 108 | 58 | 
16 | CC(Oc1ccc(Cl)cc1Cl)C(=O)NCc1ccc(N2CCCC2=O)cc1 (stereo not drawn) [MBX-1987] | 18.8 | 138 | 20 | 
17 | CC(Oc1ccc(Cl)cc1Cl)C(=O)NCc1ccc2c(c1)n(C)c(=O)n2C (stereo not drawn) [MBX-1996] | 25.5 | 180 | > 100 | 
18 | COc1cc2c(cc1CNC(=O)C(C)Oc1ccc(Cl)cc1Cl)OCCO2 (stereo not drawn) [MBX-1998] | 17.6 | 152 | 51.4 | 
19 | CC(Oc1ccc(Cl)cc1Cl)C(=O)NCc1ccc2c(c1)OCCCO2 (stereo not drawn) [MBX-1999] | 23.9 | 115 | > 100 | 
20 | CC(Oc1ccc(Cl)cc1Cl)C(=O)NCc1ccc2c(c1)CCCN2C (stereo not drawn) [MBX-2000] | 25.7 | 119 | > 100 | 
21 | CC1Cc2cc(CNC(=O)C(C)Oc3ccc(Cl)cc3Cl)ccc2O1 (stereo not drawn) [MBX-2001] | 14 | 100 | 84 | 
22 | CC(Oc1ccc(Cl)cc1Cl)C(=O)NCc1ccc(-c2ccccc2)cc1 (stereo not drawn) [MBX-2022] | 100 | 114 |  | 
23 | CC(Oc1ccc(F)cc1Cl)C(=O)NCc1ccc2c(c1)OCO2 (stereo not drawn) [MBX-2026] |  | 95 |  | 
24 | COc1ccc(CNC(=O)C(C)Oc2ccc(F)cc2Cl)cc1OC (stereo not drawn) [MBX-2027] | 100 | 101 |  | 
25 | COc1ccc(CNC(=O)C(C)Oc2ccc(F)cc2Cl)cc1 (stereo not drawn) [MBX-2028] | 75.3 | 97 | > 100 | 
26 | CC(Oc1ccc(F)cc1Cl)C(=O)NCc1ccc(F)cc1 (stereo not drawn) [MBX-2029] | 52.1 | 95 | > 100 | 
27 | COc1cc(OC)c(OC)cc1CNC(=O)C(C)Oc1ccc(Cl)cc1Cl (stereo not drawn) [MBX-2030] | 74.5 | 142 | > 100 | 

Row | SMILES | IC50 ([1]; read-out: Avg. Secretion IC50) [µM] | melting point [°C] | IC50 [2, 3] [µM] | also measured
28 | CC(C)C(Oc1ccc(Cl)cc1Cl)C(=O)NCc1ccc2c(c1)OCO2 (stereo not drawn) [MBX-2146] |  |  |  | effect of structural alteration on T3SS-mediated secretion inhibition ([1]; vs. MBX-1641): significantly inferior performance
29 | COc1ccc(CNC(=O)C(C)Oc2ncc(Cl)cc2Cl)cc1OC (stereo not drawn) [MBX-2156] | 24 | 156 | > 100 | 
30 | COc1ccc(CNC(=O)C(C)Oc2ncc(Cl)cc2Cl)cc1 (stereo not drawn) [MBX-2157] | 9.9 | 135 | > 100 | 
31 | CC(Oc1ccc(Cl)cc1Cl)C(=O)N(C)Cc1ccc2c(c1)OCO2 (stereo not drawn) [MBX-2160] | 10.1 |  | 24.3 | effect of structural alteration on T3SS-mediated secretion inhibition ([1]; vs. MBX-1641): slightly negative impact
32 | CC(Sc1ccc(Cl)cc1Cl)C(=O)NCc1ccc2c(c1)OCO2 (stereo not drawn) [MBX-2161] | 5 | 137 |  | IC50 values lower (T3SS secretion inhibition) ([1]; vs. MBX-1641): 29%
33 | COc1ccc(CNC(=O)C(C)Sc2ccc(Cl)cc2Cl)cc1OC (stereo not drawn) [MBX-2162] | 30.4 | 112 | > 100 | 
34 | CC(Sc1ccc(Cl)cc1Cl)C(=O)NCc1ccc(F)cc1 (stereo not drawn) [MBX-2164] | 4 | 142 |  | 
35 | CC(Oc1ccc(Cl)cc1Cl)C(=O)NC(C)c1ccc2c(c1)OCO2 (stereo not drawn) [MBX-2187] | 3.8 | 109 | 11 | 
36 | CC(Oc1ccc(Cl)cc1Cl)C(=O)N1CCc2cc3c(cc2C1)OCO3 (stereo not drawn) [MBX-2188] | 114 |  |  | IC50 ([1]; read-out: Secretion IC50): 114 µM
37 | CC(Oc1ccc(Cl)cc1Cl)C(=O)N1CCc2cc(F)ccc2C1 (stereo not drawn) [MBX-2189] | 111 |  |  | IC50 ([1]; read-out: Secretion IC50): 111 µM
38 | CC(Oc1ccc(Cl)cc1Cl)C(=O)N1CCc2ccc(F)cc2C1 (stereo not drawn) [MBX-2190] | 95.6 |  | > 100 | IC50 ([1]; read-out: Secretion IC50): 95.6 µM; IC50 ([2]; read-out: Translocation IC50): ≥ 100 µM
39 | COc1ccc(CNC(=O)C(C)Nc2ccc(Cl)cc2Cl)cc1OC (stereo not drawn) [MBX-2213] | 58.7 | 132 |  | 
40 | COc1ccc(CNC(=O)C(C)Nc2ccc(Cl)cc2Cl)cc1 (stereo not drawn) [MBX-2214] | 24.5 | 125 |  | 
41 | CC(Nc1ccc(Cl)cc1Cl)C(=O)NCc1ccc(F)cc1 (stereo not drawn) [MBX-2215] | 17.2 |  |  | 
42 | CC(Oc1ccc(Cl)cc1Cl)C(=O)NCCCc1ccc(F)cc1 (stereo not drawn) [MBX-2622] | > 100 | 112 |  | 
43 | CC(Oc1ccc(Cl)cc1Cl)C(=O)NC(CO)c1ccc(F)cc1 (stereo not drawn) [MBX-2625] | 5 |  |  | 
44 | CC(Oc1ccc(Cl)cc1Cl)c1nc(-c2ccc(F)cc2)no1 (stereo not drawn) [MBX-2667, 5-[1-(2,4-dichlorophenoxy)ethyl]-3-(4-fluorophenyl)-1,2,4-oxadiazole] | > 100 | 77 |  | 
45 | CC(Oc1ccc(Cl)cc1Cl)C(=O)NCc1ccc(F)nc1 (stereo not drawn) [MBX-2677] | 40 | 55 |  | 
46 | COC(=O)C(NC(=O)C(C)Oc1ccc(Cl)cc1Cl)c1ccc(F)cc1 (stereo not drawn) [MBX-2705] | 6 | 84 |  | 
47 | CC(Oc1ccc(Cl)cc1Cl)C(=O)NC(C(=O)O)c1ccc(F)cc1 (stereo not drawn) [MBX-2707] | > 100 | 160 |  | 
48 | CC(Oc1ccc(Cl)cc1Cl)c1nc(Cc2ccc(F)cc2)no1 (stereo not drawn) [MBX-2708, 5-[1-(2,4-dichlorophenoxy)ethyl]-3-(4-fluorobenzyl)-1,2,4-oxadiazole] | > 100 |  |  | 
49 | CC(Oc1ccc(Cl)cc1Cl)C(=O)NCc1cnc2[nH]ccc2c1 (stereo not drawn) [MBX-2709] | 8.8 | 198 |  | 
50 | CC(Oc1ncc(Cl)cc1Cl)C(=O)NCc1ccc(C2(C(F)(F)F)N=N2)cc1 (stereo not drawn) [MBX-2713] | > 100 | 112 |  | 
51 | CC(Oc1ccc(Cl)cc1Cl)C(=O)OCCc1ccc(F)cc1 (stereo not drawn) [MBX-2717, 4-fluorophenethyl 2-(2,4-dichlorophenoxy)propanoate] | > 100 |  |  | 
52 | CC(Oc1ccc(Cl)cc1Cl)C(=O)NCc1ccc(C2(C(F)(F)F)N=N2)cc1 (stereo not drawn) [MBX-2718] | > 100 | 117 |  | 
53 | CC(Oc1ccc(Cl)cc1Cl)C(=O)CCc1ccc(F)cc1 (stereo not drawn) [MBX-2719, 4-(2,4-dichlorophenoxy)-1-(4-fluorophenyl)pentan-3-one] | > 100 |  |  | 
